Measurements from patent US8415469B2, “Compounds and methods for kinase modulation, and indications therefor” (Plexxikon Inc., priority 2005, dated 2013).

Key:
Type in all cases: biochemical
Kit = target: T1, Kit (Homo sapiens, UniProt P10721); experiment: AlphaScreen kinase assay, Kit; conditions: read-out: IC50, activity toward kinase Kit
T1 construct: P1332.N6 BI PTP KIT M552-K948-X COD; His6 (N); made in house; host or cells: E. coli (PTP1B co-expressed)

Stk6 = target: T2, Stk6 (Homo sapiens, UniProt O14965); experiment: Z'-Lyte FRET kinase assay (Invitrogen), Stk6; conditions: read-out: IC50, activity toward kinase Stk6
T2 construct: purchased Invitrogen (Carlsbad, Calif.), screening service
T2 sequence (O14965 1-403): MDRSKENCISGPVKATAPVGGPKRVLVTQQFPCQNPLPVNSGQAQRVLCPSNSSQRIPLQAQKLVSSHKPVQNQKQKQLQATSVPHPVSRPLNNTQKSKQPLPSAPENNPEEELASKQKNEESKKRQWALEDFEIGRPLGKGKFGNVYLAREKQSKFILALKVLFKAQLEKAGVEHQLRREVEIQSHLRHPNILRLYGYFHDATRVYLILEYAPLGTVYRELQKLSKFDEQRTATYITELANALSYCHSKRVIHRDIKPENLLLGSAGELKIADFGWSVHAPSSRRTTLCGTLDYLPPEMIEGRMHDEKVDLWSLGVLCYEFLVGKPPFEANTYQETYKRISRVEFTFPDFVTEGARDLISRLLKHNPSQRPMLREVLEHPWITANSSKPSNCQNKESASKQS

Fak = target: T3, Fak (Homo sapiens, UniProt Q05397); experiment: AlphaScreen kinase assay, Fak; conditions: read-out: IC50, activity toward kinase Fak
T3 construct: P1358.pFastBacHtb FAK S411-Q686-X; His6 with pFastBacHTb leader (TEV site) (N); made in house; host or cells: Sf9 (baculovirus)

Kdr = target: T4, Kdr (Homo sapiens, UniProt P35968); experiment: Z'-Lyte FRET kinase assay (Invitrogen), Kdr; conditions: read-out: IC50, activity toward kinase Kdr
T4 construct: purchased Invitrogen (assay run by Invitrogen)

FGFR1 = target: T5, FGFR1 (Homo sapiens, UniProt P11362, C488A/C584S); experiment: AlphaScreen kinase assay, FGFR1; conditions: read-out: IC50, activity toward kinase FGFR
T5 construct: P1351.pET N6 BI-PTP FGFR A458-E765-X C488A, C584S; made in house; host or cells: E. coli (PTP1B co-expressed)

Jak3 = target: T6, Jak3 (Homo sapiens, UniProt P52333); experiment: AlphaScreen kinase assay, Jak3; conditions: read-out: IC50, activity toward kinase Jak3
T6 sequence (P52333 1-1124): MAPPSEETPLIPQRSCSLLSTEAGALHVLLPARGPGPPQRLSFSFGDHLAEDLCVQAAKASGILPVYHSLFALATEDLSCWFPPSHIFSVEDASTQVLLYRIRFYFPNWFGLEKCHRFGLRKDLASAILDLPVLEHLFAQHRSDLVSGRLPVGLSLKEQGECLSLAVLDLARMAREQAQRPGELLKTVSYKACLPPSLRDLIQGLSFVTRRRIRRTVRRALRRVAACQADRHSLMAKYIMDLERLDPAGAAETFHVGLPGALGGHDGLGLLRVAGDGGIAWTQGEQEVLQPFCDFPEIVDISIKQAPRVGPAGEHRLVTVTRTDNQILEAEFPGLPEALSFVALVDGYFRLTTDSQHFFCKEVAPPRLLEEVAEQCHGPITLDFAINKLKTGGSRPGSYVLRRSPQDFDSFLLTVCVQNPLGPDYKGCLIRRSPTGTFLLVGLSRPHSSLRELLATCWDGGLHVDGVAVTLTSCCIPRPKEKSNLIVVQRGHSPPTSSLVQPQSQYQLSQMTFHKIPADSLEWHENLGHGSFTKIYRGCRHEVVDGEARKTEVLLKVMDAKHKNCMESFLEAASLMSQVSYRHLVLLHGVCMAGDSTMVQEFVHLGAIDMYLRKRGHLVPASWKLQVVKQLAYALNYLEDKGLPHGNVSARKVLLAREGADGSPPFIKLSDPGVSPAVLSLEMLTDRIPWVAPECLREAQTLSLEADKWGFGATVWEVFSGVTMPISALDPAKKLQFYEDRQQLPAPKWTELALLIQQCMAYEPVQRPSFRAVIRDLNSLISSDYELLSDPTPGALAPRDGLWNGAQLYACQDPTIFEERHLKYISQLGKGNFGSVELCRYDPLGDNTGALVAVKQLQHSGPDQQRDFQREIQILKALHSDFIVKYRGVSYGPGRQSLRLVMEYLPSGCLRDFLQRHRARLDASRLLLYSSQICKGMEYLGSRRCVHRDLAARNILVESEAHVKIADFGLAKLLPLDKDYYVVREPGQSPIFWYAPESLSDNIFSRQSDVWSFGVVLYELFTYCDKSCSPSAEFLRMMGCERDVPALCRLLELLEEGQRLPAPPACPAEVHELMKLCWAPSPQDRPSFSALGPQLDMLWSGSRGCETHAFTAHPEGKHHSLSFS
In short: (§1)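 AlphaScreen, biotin-peptide substrate; streptavidin donor/anti-phospho acceptor beads; decreased emission = inhibition. Cpds 20 mM DMSO stock, 1:3 x 8 conc.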

Fms = target: T7, Fms (Homo sapiens, UniProt P07333); experiment: AlphaScreen kinase assay, Fms; conditions: read-out: IC50, activity toward kinase Fms
T7 construct: purchased Upstate Biotechnology

Met = target: T8, Met (Homo sapiens, UniProt P08581); experiment: AlphaScreen kinase assay, Met; conditions: read-out: IC50, activity toward kinase Met
T8 construct: P1818.pETN6 BI-PTP MET G1056-G1364-X WT; His6 (N); made in house; host or cells: E. coli (PTP1B co-expressed)
In short: as §1

Btk = target: T9, Btk (Homo sapiens, UniProt Q06187); experiment: Z'-Lyte FRET kinase assay (Invitrogen), Btk; conditions: read-out: IC50, activity toward kinase Btk
T9 construct: purchased Invitrogen (assay run by Invitrogen)
T9 sequence (Q06187 whole entry): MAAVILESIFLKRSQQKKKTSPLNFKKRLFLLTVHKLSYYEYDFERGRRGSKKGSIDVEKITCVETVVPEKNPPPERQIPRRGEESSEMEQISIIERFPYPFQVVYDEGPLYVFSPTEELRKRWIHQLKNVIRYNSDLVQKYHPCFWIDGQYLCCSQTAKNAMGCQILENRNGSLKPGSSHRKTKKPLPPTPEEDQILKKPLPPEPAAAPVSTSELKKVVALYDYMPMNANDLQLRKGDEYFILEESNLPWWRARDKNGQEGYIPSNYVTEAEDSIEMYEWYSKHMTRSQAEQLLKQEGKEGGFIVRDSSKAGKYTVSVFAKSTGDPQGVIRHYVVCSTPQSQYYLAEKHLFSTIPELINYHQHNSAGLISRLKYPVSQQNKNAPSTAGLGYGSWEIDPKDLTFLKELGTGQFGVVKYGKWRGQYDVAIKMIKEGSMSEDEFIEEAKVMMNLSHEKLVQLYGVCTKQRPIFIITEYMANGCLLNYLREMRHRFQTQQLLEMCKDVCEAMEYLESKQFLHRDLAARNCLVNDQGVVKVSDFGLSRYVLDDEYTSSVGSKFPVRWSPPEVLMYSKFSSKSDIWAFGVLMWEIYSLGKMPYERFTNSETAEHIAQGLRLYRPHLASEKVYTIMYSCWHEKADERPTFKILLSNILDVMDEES

T7 sequence (P07333 20-972): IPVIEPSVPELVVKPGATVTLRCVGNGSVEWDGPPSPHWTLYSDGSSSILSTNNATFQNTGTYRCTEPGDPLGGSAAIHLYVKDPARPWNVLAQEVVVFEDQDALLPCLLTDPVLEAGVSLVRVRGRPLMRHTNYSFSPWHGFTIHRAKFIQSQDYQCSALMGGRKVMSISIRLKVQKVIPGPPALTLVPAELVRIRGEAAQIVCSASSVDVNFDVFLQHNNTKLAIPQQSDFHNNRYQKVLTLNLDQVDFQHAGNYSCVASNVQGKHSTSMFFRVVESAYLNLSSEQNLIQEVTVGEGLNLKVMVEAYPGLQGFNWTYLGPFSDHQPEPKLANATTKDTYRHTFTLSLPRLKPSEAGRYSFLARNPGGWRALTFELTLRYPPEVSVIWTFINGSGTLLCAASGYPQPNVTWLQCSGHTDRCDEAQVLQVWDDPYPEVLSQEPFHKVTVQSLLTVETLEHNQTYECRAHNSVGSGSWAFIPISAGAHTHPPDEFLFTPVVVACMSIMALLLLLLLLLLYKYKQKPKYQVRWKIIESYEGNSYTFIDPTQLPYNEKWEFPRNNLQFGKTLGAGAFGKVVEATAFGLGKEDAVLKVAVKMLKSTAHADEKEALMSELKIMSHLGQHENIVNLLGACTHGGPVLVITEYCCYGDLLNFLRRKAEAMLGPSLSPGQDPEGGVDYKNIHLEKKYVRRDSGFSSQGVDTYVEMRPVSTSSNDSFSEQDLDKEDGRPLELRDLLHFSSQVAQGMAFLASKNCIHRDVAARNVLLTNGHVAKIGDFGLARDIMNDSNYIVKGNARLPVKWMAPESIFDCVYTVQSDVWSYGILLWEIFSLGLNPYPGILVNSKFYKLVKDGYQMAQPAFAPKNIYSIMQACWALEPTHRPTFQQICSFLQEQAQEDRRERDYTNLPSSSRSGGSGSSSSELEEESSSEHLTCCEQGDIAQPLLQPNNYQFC
T3 sequence (Q05397 411-686): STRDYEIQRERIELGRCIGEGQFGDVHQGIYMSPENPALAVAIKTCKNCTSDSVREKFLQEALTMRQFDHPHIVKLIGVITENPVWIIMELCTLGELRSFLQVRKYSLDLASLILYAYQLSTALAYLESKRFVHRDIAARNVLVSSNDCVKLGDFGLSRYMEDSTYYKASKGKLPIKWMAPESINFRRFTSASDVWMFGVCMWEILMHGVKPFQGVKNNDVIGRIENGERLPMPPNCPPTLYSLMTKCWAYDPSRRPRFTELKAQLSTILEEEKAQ
T8 sequence (P08581 with tags, fused parts or gaps): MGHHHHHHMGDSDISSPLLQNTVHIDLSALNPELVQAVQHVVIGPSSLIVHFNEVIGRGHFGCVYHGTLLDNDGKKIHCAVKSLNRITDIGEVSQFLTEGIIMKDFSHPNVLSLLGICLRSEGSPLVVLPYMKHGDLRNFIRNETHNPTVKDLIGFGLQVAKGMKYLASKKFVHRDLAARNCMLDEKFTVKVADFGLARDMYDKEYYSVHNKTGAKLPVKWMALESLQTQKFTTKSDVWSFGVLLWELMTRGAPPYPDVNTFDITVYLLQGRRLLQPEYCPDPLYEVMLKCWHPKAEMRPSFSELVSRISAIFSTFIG
T4 sequence (P35968 20-1356): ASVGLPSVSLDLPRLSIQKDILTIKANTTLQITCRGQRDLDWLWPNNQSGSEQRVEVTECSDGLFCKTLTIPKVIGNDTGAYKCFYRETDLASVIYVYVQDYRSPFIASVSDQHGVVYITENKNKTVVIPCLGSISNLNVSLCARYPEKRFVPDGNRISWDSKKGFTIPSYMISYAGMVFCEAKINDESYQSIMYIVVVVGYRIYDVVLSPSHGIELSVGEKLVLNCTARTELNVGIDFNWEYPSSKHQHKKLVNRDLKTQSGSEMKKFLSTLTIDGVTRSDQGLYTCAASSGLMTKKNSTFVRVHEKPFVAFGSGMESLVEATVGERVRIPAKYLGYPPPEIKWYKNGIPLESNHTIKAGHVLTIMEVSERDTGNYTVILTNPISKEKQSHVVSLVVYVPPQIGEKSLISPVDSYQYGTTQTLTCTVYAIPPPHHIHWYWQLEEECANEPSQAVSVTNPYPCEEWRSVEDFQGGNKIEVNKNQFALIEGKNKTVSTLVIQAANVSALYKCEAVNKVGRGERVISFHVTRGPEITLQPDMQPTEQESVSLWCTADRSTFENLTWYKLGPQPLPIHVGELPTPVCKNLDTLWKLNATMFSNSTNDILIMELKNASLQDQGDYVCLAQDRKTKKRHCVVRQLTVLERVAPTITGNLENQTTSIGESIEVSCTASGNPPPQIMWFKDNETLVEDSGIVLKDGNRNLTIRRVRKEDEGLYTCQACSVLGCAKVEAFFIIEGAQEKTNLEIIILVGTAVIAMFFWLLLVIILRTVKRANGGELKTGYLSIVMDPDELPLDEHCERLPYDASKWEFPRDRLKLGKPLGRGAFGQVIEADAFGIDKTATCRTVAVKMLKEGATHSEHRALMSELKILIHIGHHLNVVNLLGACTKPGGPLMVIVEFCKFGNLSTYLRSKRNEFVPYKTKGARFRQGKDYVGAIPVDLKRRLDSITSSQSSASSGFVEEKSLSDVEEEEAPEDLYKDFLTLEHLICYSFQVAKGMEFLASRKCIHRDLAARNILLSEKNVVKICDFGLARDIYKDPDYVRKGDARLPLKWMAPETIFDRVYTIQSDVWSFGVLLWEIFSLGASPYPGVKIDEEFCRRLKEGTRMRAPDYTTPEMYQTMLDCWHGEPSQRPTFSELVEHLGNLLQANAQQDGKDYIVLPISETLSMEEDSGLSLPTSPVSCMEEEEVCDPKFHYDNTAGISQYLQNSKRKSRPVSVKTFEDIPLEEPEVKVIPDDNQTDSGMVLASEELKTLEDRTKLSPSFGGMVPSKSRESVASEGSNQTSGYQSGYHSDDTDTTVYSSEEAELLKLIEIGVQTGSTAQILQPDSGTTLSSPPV
T1 sequence (P10721 with tags, fused parts or gaps): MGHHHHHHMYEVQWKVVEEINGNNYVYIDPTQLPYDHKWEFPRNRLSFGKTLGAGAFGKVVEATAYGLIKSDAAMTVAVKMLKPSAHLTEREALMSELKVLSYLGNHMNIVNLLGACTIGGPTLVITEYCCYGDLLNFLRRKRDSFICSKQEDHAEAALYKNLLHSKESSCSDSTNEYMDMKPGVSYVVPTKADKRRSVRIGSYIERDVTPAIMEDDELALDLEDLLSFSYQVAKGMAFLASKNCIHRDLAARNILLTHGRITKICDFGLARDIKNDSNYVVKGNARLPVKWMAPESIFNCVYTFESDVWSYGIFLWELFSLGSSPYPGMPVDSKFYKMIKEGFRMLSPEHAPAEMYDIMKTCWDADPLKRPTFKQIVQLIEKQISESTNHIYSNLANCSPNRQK
T5 sequence (P11362 458-765 C488A/C584S): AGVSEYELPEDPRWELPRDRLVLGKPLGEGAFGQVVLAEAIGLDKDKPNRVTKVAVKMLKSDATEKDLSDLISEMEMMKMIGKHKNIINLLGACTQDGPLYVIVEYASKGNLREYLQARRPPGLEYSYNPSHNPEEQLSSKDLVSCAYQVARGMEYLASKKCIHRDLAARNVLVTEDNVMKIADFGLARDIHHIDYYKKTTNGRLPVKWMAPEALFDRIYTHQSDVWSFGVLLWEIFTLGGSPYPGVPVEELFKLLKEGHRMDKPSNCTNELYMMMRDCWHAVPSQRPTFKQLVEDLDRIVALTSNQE

Row | IC50 (Kit) [µM] | IC50 (Stk6) [µM] | IC50 (Fak) [µM] | IC50 (Kdr) [µM] | IC50 (FGFR1) [µM] | IC50 (Jak3) [µM] | IC50 (Fms) [µM] | IC50 (Met) [µM] | IC50 (Btk) [µM] | Structure (SMILES)
1 | ≤ 10 | ≤ 10 | ≤ 10 | ≤ 10 | ≤ 10 | ≤ 10 | ≤ 10 | – | – | Nc1cccc(-c2cnc3[nH]cc(C(=O)c4cccc(O)c4)c3c2)c1 [Compound P-0003]
2 | ≤ 10 | – | ≤ 10 | – | ≤ 10 | ≤ 10 | ≤ 10 | ≤ 10 | – | Nc1cccc(-c2cnc3[nH]cc(C(=O)c4cccc(O)c4F)c3c2)c1 [Compound P-0004, [5-(3-amino-phenyl)-1H-pyrrolo[2,3-b]pyridin-3-yl]-(2-fluoro-3-hydroxy-phenyl)methanone]
3 | ≤ 10 | ≤ 10 | ≤ 10 | ≤ 10 | ≤ 10 | ≤ 10 | ≤ 10 | ≤ 10 | ≤ 10 | Oc1ccc(F)c(C(O)c2c[nH]c3ncc(-c4cccnc4)cc23)c1F (stereo not shown) [Compound P-0009, 2,4-difluoro-3-[hydroxy-(5-pyridin-3-yl-1H-pyrrolo[2,3-b]pyridin-3-yl)-methyl]-phenol]
4 | ≤ 10 | ≤ 10 | – | ≤ 10 | ≤ 10 | ≤ 10 | – | – | ≤ 10 | NC(=O)c1ccc(-c2ccnc3[nH]cc(C(=O)c4cc(F)ccc4F)c23)cc1 [Compound P-0013]
5 | – | ≤ 10 | – | ≤ 10 | – | ≤ 10 | – | – | ≤ 10 | NC(=O)c1ccc(-c2ccnc3[nH]cc(C(=O)c4ccccc4F)c23)cc1 [Compound P-0014]
6 | ≤ 10 | – | – | ≤ 10 | ≤ 10 | ≤ 10 | ≤ 10 | – | ≤ 10 | O=C(c1cccc(O)c1)c1c[nH]c2ncc(Br)cc12 [Compound P-0019]
7 | ≤ 10 | ≤ 10 | – | ≤ 10 | ≤ 10 | ≤ 10 | ≤ 10 | ≤ 10 | ≤ 10 | CS(=O)(=O)c1cccc(-c2cnc3[nH]cc(C(O)c4c(F)ccc(F)c4F)c3c2)c1 (stereo not shown) [Compound P-0020]
8 | – | ≤ 10 | – | ≤ 10 | – | ≤ 10 | – | – | ≤ 10 | Nc1cccc(-c2ccnc3[nH]cc(C(=O)c4ccccc4F)c23)c1 [Compound P-0022]
9 | ≤ 10 | – | ≤ 10 | ≤ 10 | ≤ 10 | ≤ 10 | – | – | ≤ 10 | O=C(c1ccc(O)cc1)c1c[nH]c2ncc(-c3cccs3)cc12 [Compound P-0024, (4-Hydroxy-phenyl)-(5-thiophen-2-yl-1H-pyrrolo[2,3-b]pyridin-3-yl)-methanone]
10 | ≤ 10 | – | ≤ 10 | – | ≤ 10 | ≤ 10 | ≤ 10 | ≤ 10 | – | NC(=O)c1cccc(-c2cnc3[nH]cc(C(=O)c4cccc(O)c4F)c3c2)c1 [Compound P-0034, 3-[3-(2-Fluoro-3-hydroxy-benzoyl)-1H-pyrrolo[2,3-b]pyridin-5-yl]benzamide]
11 | ≤ 10 | – | – | ≤ 10 | ≤ 10 | ≤ 10 | – | – | – | O=C(c1cccc(O)c1)c1c[nH]c2nccc(-c3cc(F)cc(F)c3)c12 [Compound P-0039]
12 | – | ≤ 10 | – | ≤ 10 | – | ≤ 10 | – | – | ≤ 10 | Cc1ccccc1C(=O)c1c[nH]c2nccc(-c3cccc(N)c3)c12 [Compound P-0044]
13 | – | ≤ 10 | – | ≤ 10 | – | ≤ 10 | – | – | ≤ 10 | Nc1cccc(-c2ccnc3[nH]cc(C(=O)c4cc(F)ccc4F)c23)c1 [Compound P-0046]
14 | – | ≤ 10 | – | ≤ 10 | – | ≤ 10 | – | – | ≤ 10 | NC(=O)c1cccc(-c2ccnc3[nH]cc(C(=O)c4cc(F)ccc4F)c23)c1 [Compound P-0049]
15 | – | ≤ 10 | – | ≤ 10 | – | ≤ 10 | – | – | ≤ 10 | O=C(c1ccccc1F)c1c[nH]c2nccc(-c3ccsc3)c12 [Compound P-0051]
16 | – | ≤ 10 | – | ≤ 10 | – | ≤ 10 | – | – | ≤ 10 | CS(=O)(=O)Nc1cccc(-c2ccnc3[nH]cc(C(=O)c4cc(F)ccc4F)c23)c1 [Compound P-0060]
17 | – | ≤ 10 | – | ≤ 10 | – | ≤ 10 | – | – | ≤ 10 | O=C(c1cc(F)ccc1F)c1c[nH]c2nccc(-c3cccnc3)c12 [Compound P-0063]
18 | – | ≤ 10 | – | ≤ 10 | – | ≤ 10 | – | – | ≤ 10 | CC(=O)Nc1cccc(-c2ccnc3[nH]cc(C(=O)c4ccccc4F)c23)c1 [Compound P-0070]
19 | ≤ 10 | ≤ 10 | – | ≤ 10 | ≤ 10 | ≤ 10 | ≤ 10 | ≤ 10 | – | OC(c1c(F)ccc(F)c1F)c1c[nH]c2ncc(-c3cccnc3)cc12 (stereo not shown) [Compound P-0101]
20 | – | ≤ 10 | – | ≤ 10 | – | ≤ 10 | – | – | – | Fc1cc(F)cc(-c2ccnc3[nH]cc(Sc4ccccn4)c23)c1 [Compound P-0106]
21 | – | – | – | – | – | ≤ 10 | – | – | ≤ 10 | Cc1ccccc1C(=O)c1c[nH]c2nccc(-c3cccc(NS(C)(=O)=O)c3)c12 [Compound P-0109]
22 | ≤ 10 | – | – | ≤ 10 | – | ≤ 10 | – | – | – | Oc1ccc(F)c(Cc2c[nH]c3ncc(Br)cc23)c1F [Compound P-0122, 3-(5-Bromo-1H-pyrrolo[2,3-b]pyridin-3-ylmethyl)-2,4-difluoro-phenol]
23 | – | – | – | – | – | ≤ 10 | – | – | – | Cc1ccc(F)cc1C(=O)c1c[nH]c2nccc(-c3cccc(NS(C)(=O)=O)c3)c12 [Compound P-0124]
24 | ≤ 10 | – | – | – | ≤ 10 | ≤ 10 | – | – | ≤ 10 | CS(=O)(=O)c1cccc(-c2ccnc3[nH]cc(C(=O)c4cc(F)ccc4F)c23)c1 [Compound P-0171]
25 | ≤ 10 | – | – | ≤ 10 | ≤ 10 | ≤ 10 | – | – | – | O=C(c1cccc(O)c1F)c1c[nH]c2ncc(-c3cccs3)cc12 [Compound P-0521, (2-fluoro-3-hydroxy-phenyl)-(5-thiophen-2-yl-1H-pyrrolo[2,3-b]pyridin-3-yl)-methanone]
